These are literature values, as cited in patent US20090233891A1, “Pharmaceutical lotion comprising fluticasone propionate” (GLENMARK GENERICS LTD., priority 2008, published 2009).

Turning to `CCC(=O)O[C@]1(C(=O)SCF)[C@H](C)C[C@H]2[C@@H]3C[C@H](F)C4=CC(=O)C=C[C@]4(C)[C@@]3(F)[C@@H](O)C[C@@]21C` [Fluticasone propionate, S-(fluoromethyl) 6a, 9-difluoro-11β, 17-dihydroxy-16a-methyl-3-oxoandrosta-1,4-diene-17β-carbothioate, 17-propionate], the “solubility in 95% ethanol” value (95% ethanol) is on record as “slightly soluble”. For the setting “dimethyl sulfoxide”, the “solubility in dimethyl sulfoxide” value is recorded as “freely soluble”. Moreover, the solubility in dimethylformamide entry (dimethylformamide) is given as “freely soluble”. Where the note is “methanol”, the solubility in methanol entry was “slightly soluble”. Further, the solubility in water result (water) is on record as “practically insoluble”.
